Data reported in patent publication US8372857B2, “Substituted 4-hydroxypyrimidine-5-carboxamides” (Merck Sharp & Dohme Corp., priority 2009, dated 2013).

What was measured:
[1] = biological target: T1, PHD2 (Homo sapiens, UniProt Q9GZT9); experiment: PHD2 / HIF-1α peptide time resolved fluorescence assay; format: biochemical
T1 construct: FLAG-tagged full length PHD2 expressed in and purified from baculovirus-infected Sf9 cells; FLAG; made in house; host or cells: baculovirus-infected Sf9 cells
Experimental: To each well of a 96-well plate was added 1 μL of test compound in DMSO and 20 μl of assay buffer (50 mM Tris pH 7.4/0.01% Tween-20/0.1 mg/ml bovine serum albumin/10 μM ferrous sulfate/1 mM sodium ascorbate/20 μg/ml catalase) containing 0.15 μg/ml FLAG-tagged full length PHD2 expressed in and purified from baculovirus-infected Sf9 cells. After a 30 min preincubation at room temperature, the enzymatic reactions were initiated by the addition of 4 μL of substrates (final concentrations of 0.2 μM 2-oxoglutarate and 0.5 μM HIF-1α peptide biotinyl-DLDLEMLAPYIPMDDDFQL). After 2 hr at room temperature, the reactions were terminated and signals were developed by the addition of a 25 μL quench/detection mix to a final concentration of 1 mM ortho-phenanthroline, 0.1 mM EDTA, 0.5 nM anti-(His)6 LANCE reagent (Perkin-Elmer Life Sciences), 100 nM AF647-labeled streptavidin (Invitrogen), and 2 μg/ml (His)-6-VIAL complex (S. Tan(2001) Protein Expr. Purif. 21, 224-234). The ratio of time resolved fluorescence signals at 665 and 620 nm was determined, and percent inhibition was calculated relative to an uninhibited control sample run in parallel.

[2] = biological target: CYP3A4 (Homo sapiens, UniProt P08684); experiment: Cytochrome P450 inhibition, CYP3A4; format: in vitro ADME
Experimental: (§1) The compounds of Example 1 and also Example 187 of PCT/US09/036,501 were tested for their activity at the cytochrome P450 enzymes CYP3A4 and CYP2C8. Utilizing procedures similar to that described by Walasky et al. and the references therein, the following human IC50 values were determined (Walsky, R. L.; Obach, R. S. Drug Metab. Dispos. 2004, 32, 647-660.)

[3] = Pharmacokinetics after intravenous dosing in dogs (plasma concentration by LC-MS/MS); format: in vivo; conditions: beagle, dog, dogs (beagles), 0.5 mg/kg intravenous
Experimental: The pharmacokinetics and cytochrome P450 activity of Example 1 (E-1) were evaluated, and compared to that of Example 187 disclosed in International PCT application PCT/US09/036,501, filed Mar. 9, 2009. Compounds were formulated in a 1:1 solution (by volume) of PEG200: water and dosed at 0.5 mg/kg of body weight. The formulation was dosed intravenously in 2 dogs (beagles), and blood was drawn at the following time points (hours) 0.08, 0.25, 0.5, 1, 2, 4, 6, 8, 24. The plasma concentrations shown in the table below were determined by protein precipitation followed by liquid chromatography—tandem mass spectrometry analysis.

[4] = biological target: T2, CYP2C8 (Homo sapiens, UniProt P10632); experiment: Cytochrome P450 inhibition, CYP2C8; format: in vitro ADME
T2 sequence (P10632 1-490): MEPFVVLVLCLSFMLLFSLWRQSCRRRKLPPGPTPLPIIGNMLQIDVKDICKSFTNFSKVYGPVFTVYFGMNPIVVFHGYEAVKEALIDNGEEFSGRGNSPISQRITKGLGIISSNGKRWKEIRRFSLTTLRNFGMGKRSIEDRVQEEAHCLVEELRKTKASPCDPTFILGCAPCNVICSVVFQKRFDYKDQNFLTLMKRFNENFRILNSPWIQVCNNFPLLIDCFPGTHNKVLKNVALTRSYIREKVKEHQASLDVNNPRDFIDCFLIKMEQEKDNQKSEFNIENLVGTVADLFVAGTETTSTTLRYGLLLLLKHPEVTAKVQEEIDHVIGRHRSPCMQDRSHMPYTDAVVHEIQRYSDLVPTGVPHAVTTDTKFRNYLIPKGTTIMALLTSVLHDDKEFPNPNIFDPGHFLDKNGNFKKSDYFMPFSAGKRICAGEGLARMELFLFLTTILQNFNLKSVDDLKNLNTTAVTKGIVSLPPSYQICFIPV
Experimental: as §1

T1 sequence (Q9GZT9 whole entry): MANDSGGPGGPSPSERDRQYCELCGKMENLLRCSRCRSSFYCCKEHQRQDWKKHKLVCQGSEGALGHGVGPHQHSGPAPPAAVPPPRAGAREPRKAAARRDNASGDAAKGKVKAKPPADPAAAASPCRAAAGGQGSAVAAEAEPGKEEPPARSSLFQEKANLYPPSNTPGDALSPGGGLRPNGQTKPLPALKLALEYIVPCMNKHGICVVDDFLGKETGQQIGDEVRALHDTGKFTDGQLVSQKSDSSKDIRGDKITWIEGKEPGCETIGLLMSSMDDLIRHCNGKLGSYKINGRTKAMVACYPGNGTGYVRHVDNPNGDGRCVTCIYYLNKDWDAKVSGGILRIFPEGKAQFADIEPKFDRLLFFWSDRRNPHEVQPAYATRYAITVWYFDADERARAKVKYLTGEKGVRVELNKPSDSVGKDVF
Chain of CYP3A4 (P08684 whole entry): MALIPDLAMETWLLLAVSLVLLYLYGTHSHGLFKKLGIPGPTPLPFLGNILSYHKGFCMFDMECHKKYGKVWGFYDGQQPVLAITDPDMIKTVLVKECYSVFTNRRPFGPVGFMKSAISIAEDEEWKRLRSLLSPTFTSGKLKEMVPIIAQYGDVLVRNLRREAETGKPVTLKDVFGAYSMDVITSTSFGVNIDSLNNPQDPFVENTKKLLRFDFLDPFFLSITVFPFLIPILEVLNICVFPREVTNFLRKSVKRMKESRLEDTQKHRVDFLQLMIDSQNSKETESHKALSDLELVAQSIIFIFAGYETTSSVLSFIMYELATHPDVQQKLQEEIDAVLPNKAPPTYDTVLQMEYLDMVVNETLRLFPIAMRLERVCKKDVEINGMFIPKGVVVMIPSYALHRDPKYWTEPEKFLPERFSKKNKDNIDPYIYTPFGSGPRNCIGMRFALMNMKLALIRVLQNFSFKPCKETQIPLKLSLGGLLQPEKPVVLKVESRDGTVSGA

COc1ccc(-c2ccc(C(C)(C)NC(=O)c3cnc(-c4cccnn4)nc3O)cn2)cc1 [Example 1, 4-Hydroxy-N-{1-[6-(4-methoxyphenyl)pyridin-3-yl]-1-methylethyl}-2-pyridazin-3-ylpyrimidine-5-carboxamide]
IC50, inhibition of the interaction between PHD2 and a HIF peptide ([1]; general range statement, units within the value): 0.0001 to 10 µM
IC50 ([1]; read-out: PHD2 binding activity expressed as IC50): ≤ 0.01 µM
IC50 [2]: > 50 µM
MRT [3]: 6.57 h
clearance [3]: 2.49 mL/min/kg
concentration at 0.08 h ([3]; 0.08 hours): 1500 nM
concentration at 0.25 h ([3]; 0.25 hours): 1150 nM
concentration at 0.5 h ([3]; 0.50 hours): 1110 nM
concentration at 1 h ([3]; 1.00 hours): 944 nM
concentration at 2 h ([3]; 2.00 hours): 754 nM
concentration at 4 h ([3]; 4.00 hours): 581 nM
concentration at 6 h ([3]; 6.00 hours): 374 nM
concentration at 8 h ([3]; 8.00 hours): 475 nM
concentration at 24 h ([3]; 24.00 hours): 23 nM
half-life ([3]; read-out: T ½ (converted)): 4.09 h
IC50 [4]: 49.5 µM
